# From patent US20250019350A1, “SYNTHESIS OF THE PROSTATE SPECIFIC MEMBRANE ANTIGEN (PSMA) RADIOLABELED INHIBITOR [18F]DCFPYL” (Progenics Pharmaceuticals, Inc, priority 2023, published 2025)
# Several values for one entry are separate records, joined by “and”; a condition that tells them apart may be missing. Identical values can stand only once.
# Test: Radiolysis / stability of [18F]DCFPyL over time by HPLC with radiodetection (RCP, free 18F, radioactive impurities)
# Format: physicochemical
# Protocol: Those of ordinary skill in the art will be aware of techniques and systems for determining the radiochemical purity of a composition. In some cases, the radiochemical purity is determined using an HPLC associated with a radio-detector. Generally, the radiochemical purity is determined under ambient conditions (e.g., ambient temperature, ambient humidity, ambient light, etc.), such as in samples stored under such conditions.
# Stability was assessed using reverse phase HPLC on a C18 column with a phosphate buffer/acetonitrile gradient mobile phase, and the elution profile was monitored using both UV and radiochemical detectors. Samples were analyzed either by direct injection onto the HPLC, dilution and injection or including the addition of tetraethylammonium fluoride (TEAF) into the sample before injection.
# Known amounts of free ^18F either alone or spiked with TEAF were injected onto the analytic column and the eluent from the column collected over the course of a chromatogram and assaying the radioactivity using a Capintec. […] Adding TEAF into the analytic samples was incorporated into subsequent studies examining potential radiolysis of [^18F]DCFPyL to overcome some of the limitations of free ^18F quantification.
# Analytical HPLC method was used. The method employs UV detection at 264 nm for chemical impurities, and an Eckert & Ziegler model B-FC-1000 gamma detector for radiochemical assays.
# [1] = T = 2.5 hr, 100 mg/mL ascorbic acid pH 2.0, 256 mCi/mL at EOS
# [2] = T = 2.5 hr, 20% ethanol in saline, 52 mCi/mL at EOS
# [3] = T = 2.5 hr, 20% ethanol in saline, 65 mCi/mL at EOS
# [4] = T = 2.5 hr, 20% ethanol in saline, 85 mCi/mL at EOS
# [5] = T = 2.5 hr, control without ascorbic acid, 36% ethanol in saline, 147 mCi/mL at EOS
# [6] = T = 3.0 hr, 50 mg/mL ascorbic acid pH 5.8 in final product vial, 20% ethanol, 110 mCi/mL at EOS
# [7] = T = 3.0 hr, 100 mg/mL ascorbic acid pH 2.0, 256 mCi/mL at EOS
# [8] = T = 3 hr, 20% ethanol in saline, 52 mCi/mL at EOS
# [9] = T = 3 hr, 20% ethanol in saline, 65 mCi/mL at EOS
# [10] = T = 3 hr, 20% ethanol in saline, 85 mCi/mL at EOS
# [11] = T = 3 hr, 100% ethanol, 325 mCi/mL at EOS
# [12] = T = 3 hr, control without ascorbic acid, 36% ethanol in saline, 147 mCi/mL at EOS
# [13] = T = 3.5 hr, 50 mg/mL ascorbic acid pH 5.8 in final product vial, 20% ethanol, 110 mCi/mL at EOS
# [14] = T = 3.5 hr, 100 mg/mL ascorbic acid pH 2.0, 256 mCi/mL at EOS
# [15] = T = 3.5 hr, 20% ethanol in saline, 52 mCi/mL at EOS
# [16] = T = 3.5 hr, 20% ethanol in saline, 65 mCi/mL at EOS
# [17] = T = 3.5 hr, 20% ethanol in saline, 85 mCi/mL at EOS
# [18] = T = 3.5 hr, control without ascorbic acid, 36% ethanol in saline, 147 mCi/mL at EOS
# [19] = T = 4 hr, 0.5 mg/mL ascorbic acid pH 5.8, 20% ethanol, 105.8 mCi/mL at EOS
# [20] = T = 4 hr, 1 mg/mL ascorbic acid pH 5.8, 20% ethanol, 107.0 mCi/mL at EOS
# [21] = T = 4 hr, 5 mg/mL ascorbic acid pH 5.8, 20% ethanol, 99.0 mCi/mL at EOS
# [22] = T = 4 hr, 20 mg/mL sodium citrate, 20% ethanol, 104.8 mCi/mL at EOS
# [23] = T = 4 hr, 50 mg/mL ascorbic acid pH 5.8, 20% ethanol, 139.7 mCi/mL at EOS
# [24] = T = 4.0 hr, 50 mg/mL ascorbic acid pH 5.8 in final product vial, 20% ethanol, 110 mCi/mL at EOS
# [25] = T = 4.0 hr, 100 mg/mL ascorbic acid pH 2.0, 256 mCi/mL at EOS
# [26] = T = 4 hr, 20% ethanol in saline, 52 mCi/mL at EOS
# [27] = T = 4 hr, 20% ethanol in saline, 65 mCi/mL at EOS
# [28] = T = 4 hr, 20% ethanol in saline, 85 mCi/mL at EOS
# [29] = T = 4 hr, 100% ethanol, 325 mCi/mL at EOS
# [30] = T = 4 hr, control without ascorbic acid, 36% ethanol in saline, 147 mCi/mL at EOS
# [31] = T = 5 hr, 100% ethanol, 325 mCi/mL at EOS
structure (smiles),measurement,setting,value
"O=C(O)CC[C@H](NC(=O)N[C@@H](CCCCNC(=O)c1ccc([18F])nc1)C(=O)O)C(=O)O [Lot 18F-DCFPyL, 2-(3-{1-carboxy-5-[(6-[18F]fluoro-pyridine-3-carbonyl)-amino]-pentyl}ureido)-pentanedioic acid]",18F-DCFPyL (RCP),[1],98.71%
same,Free 18F,[1],0.31%
same,RT 12.0 radioactive impurity,[1],0.52%
same,RT 12.2 radioactive impurity,[1],0.46%
same,18F-DCFPyL (RCP),[2],98.61%
same,Free F-18,[2],0.86%
same,RT 5.0 radioactive impurity,[2],0.53%
same,18F-DCFPyL (RCP),[3],95.36%
same,Free F-18,[3],3.97%
same,RT 5.0 radioactive impurity,[3],0.41%
same,RT 5.9 radioactive impurity,[3],0.26%
same,18F-DCFPyL (RCP),[4],95.06%
same,Free F-18,[4],4.29%
same,RT 5.0 radioactive impurity,[4],0.31%
same,RT 5.9 radioactive impurity,[4],0.35%
same,18F-DCFPyL (RCP),[5],88.79%
same,Free F-18,[5],9.66%
same,RT 5.0 radioactive impurity,[5],0.62%
same,RT 5.9 radioactive impurity,[5],0.93%
same,18F-DCFPyL (RCP),[6],99.25%
same,Free 18F,[6],0.35%
same,RT 5.0 radioactive impurity,[6],0.39%
same,RT 5.9 radioactive impurity,[6],0.27%
same,18F-DCFPyL (RCP),[7],98.46%
same,Free 18F,[7],0.29%
same,RT 12.0 radioactive impurity,[7],0.69%
same,RT 12.2 radioactive impurity,[7],0.57%
same,18F-DCFPyL (RCP),[8],98.53%
same,Free F-18,[8],0.99%
same,RT 5.0 radioactive impurity,[8],0.48%
same,18F-DCFPyL (RCP),[9],95.64%
same,Free F-18,[9],4.03%
same,RT 5.0 radioactive impurity,[9],0.34%
same,18F-DCFPyL (RCP),[10],95.10%
same,Free F-18,[10],4.26%
same,RT 5.0 radioactive impurity,[10],0.37%
same,RT 5.9 radioactive impurity,[10],0.27%
same,18F-DCFPyL (RCP),[11],95.71%
same,Free F-18,[11],4.29%
same,18F-DCFPyL (RCP),[12],88.94%
same,Free F-18,[12],9.49%
same,RT 5.0 radioactive impurity,[12],0.70%
same,RT 5.9 radioactive impurity,[12],0.87%
same,18F-DCFPyL (RCP),[13],99.46%
same,Free 18F,[13],0.24%
same,RT 5.0 radioactive impurity,[13],0.31%
same,18F-DCFPyL (RCP),[14],98.03%
same,Free 18F,[14],0.35%
same,RT 12.0 radioactive impurity,[14],0.88%
same,RT 12.2 radioactive impurity,[14],0.75%
same,18F-DCFPyL (RCP),[15],98.55%
same,Free F-18,[15],0.94%
same,RT 5.0 radioactive impurity,[15],0.52%
same,18F-DCFPyL (RCP),[16],95.44%
same,Free F-18,[16],4.17%
same,RT 5.0 radioactive impurity,[16],0.39%
same,18F-DCFPyL (RCP),[17],95.14%
same,Free F-18,[17],4.51%
same,RT 5.0 radioactive impurity,[17],0.35%
same,18F-DCFPyL (RCP),[18],88.90%
same,Free F-18,[18],9.56%
same,RT 5.0 radioactive impurity,[18],0.59%
same,RT 5.9 radioactive impurity,[18],0.95%
same,18F-DCFPyL (% RCP),[19],98.64%
same,Free F-18,[19],1.36%
same,18F-DCFPyL (% RCP),[20],98.56%
same,Free F-18,[20],1.44%
same,Free F-18,"T = 4 hr, 1 mg/mL sodium ascorbate, 20% ethanol, 111.5 mCi/mL at EOS",2.61%
same,18F-DCFPyL (% RCP),[21],99.23%
same,Free F-18,[21],0.77%
same,Free F-18,"T = 4 hr, 5 mg/mL sodium ascorbate, 20% ethanol, 114.6 mCi/mL at EOS",1.23%
same,Free F-18,[22],20.65%
same,RT 3.4 radioactive impurity,[22],0.32%
same,RT 3.7 radioactive impurity,[22],0.35%
same,18F-DCFPyL (% RCP),[23],99.69%
same,Free F-18,[23],0.31%
same,RT 4.8 radioactive impurity,"T = 4 hr, 50 mg/mL ascorbic acid pH 5.8, 20% ethanol, 139.7 mCi/mL at EOS, MPA = 0.25% of main peak",<MPA
same,18F-DCFPyL (RCP),[24],above 99%
same,Free 18F,[24],0.26%
same,RT 5.0 radioactive impurity,[24],0.37%
same,18F-DCFPyL (RCP),[25],98.0% and 97.98%
same,Free 18F,[25],0.37%
same,RT 12.0 radioactive impurity,[25],0.96%
same,RT 12.2 radioactive impurity,[25],0.69%
same,18F-DCFPyL (RCP),"T = 4.0 hr, 100 mg/mL ascorbic acid pH 2.0, 256 mCi/mL at EOS, listed as [^18F]DCFPYL",98.0%
same,18F-DCFPyL (RCP),[26],98.53%
same,Free F-18,[26],0.98%
same,RT 5.0 radioactive impurity,[26],0.49%
same,18F-DCFPyL (RCP),[27],95.50%
same,Free F-18,[27],4.23%
same,RT 5.0 radioactive impurity,[27],0.27%
same,18F-DCFPyL (RCP),[28],94.93%
same,Free F-18,[28],4.73%
same,RT 5.0 radioactive impurity,[28],0.34%
same,18F-DCFPyL (RCP),[29],95.60%
same,Free F-18,[29],4.40%
same,18F-DCFPyL (RCP),[30],89% and 89.06%
same,Free F-18,[30],9.27%
same,RT 5.0 radioactive impurity,[30],0.71%
same,RT 5.9 radioactive impurity,[30],0.96%
same,18F-DCFPyL (RCP),"T = 4 hr, control without ascorbic acid, 36% ethanol in saline, 147 mCi/mL at EOS, listed as [^18F]DCFPYL",89%
same,18F-DCFPyL (RCP),[31],95.58%
same,Free F-18,[31],4.42%
same,Free F-18,"T = 6 hr, 0.5 mg/mL ascorbic acid pH 5.8, 20% ethanol, 105.8 mCi/mL at EOS",1.44%
same,18F-DCFPyL (% RCP),"T = 6 hr, 1 mg/mL ascorbic acid pH 5.8, 20% ethanol, 107.0 mCi/mL at EOS",98.43%
